# Measurements reported in patent US20180098969A1, “HODGKIN LYMPHOMA THERAPY” (Purdue Pharmaceutical Products L.P., priority 2016, published 2018).
# What was measured:
# [1] = system: relapsed-refractory Hodgkin lymphoma; conditions: in vivo; cited from earlier work
# [2] = system: non-resistant L1236 Hodgkin lymphoma cell lines; assay: Viable cell count and IC50, non-resistant lines; format: cell-based, human; conditions: FIG. 6B
# Procedure: (b) The bendamustine-resistant Hodgkin lymphoma cell line L1236-R100, non-resistant L1236 Hodgkin lymphoma cell line cultured in DMSO L1236/DMSO and L1236 was cultured in the presence of EDO-S101 dissolved in DMSO at concentrations of 0.78 μM, 1.56 μM, 3.12 μM, 6.25 μM and 12.5 μM. Control cells were cultured in the same final concentration of DMSO. The number of viable cells was assessed at 24, 48 and 72 hours through a Countess™ automated cell counter (Invitrogen), each experiment being repeated three times and the results given being the mean of the three results ±SD.
smiles,measurement,setting,value
Cn1c(CCCC(=O)O)nc2cc(N(CCCl)CCCl)ccc21 [bendamustine],relapsed/refractory Hodgkin lymphoma patients resistant,[1],about 40%
same,IC50,[2],high IC50 values
